What was measured:
[1] = target: T1, Prostaglandin G/H synthase 1 (Bos taurus, UniProt O62664); experiment: Inhibition of bovine seminal microsomal COX1 assessed as PGE2 production preincubated for 10 mins
T1 sequence (O62664 whole entry): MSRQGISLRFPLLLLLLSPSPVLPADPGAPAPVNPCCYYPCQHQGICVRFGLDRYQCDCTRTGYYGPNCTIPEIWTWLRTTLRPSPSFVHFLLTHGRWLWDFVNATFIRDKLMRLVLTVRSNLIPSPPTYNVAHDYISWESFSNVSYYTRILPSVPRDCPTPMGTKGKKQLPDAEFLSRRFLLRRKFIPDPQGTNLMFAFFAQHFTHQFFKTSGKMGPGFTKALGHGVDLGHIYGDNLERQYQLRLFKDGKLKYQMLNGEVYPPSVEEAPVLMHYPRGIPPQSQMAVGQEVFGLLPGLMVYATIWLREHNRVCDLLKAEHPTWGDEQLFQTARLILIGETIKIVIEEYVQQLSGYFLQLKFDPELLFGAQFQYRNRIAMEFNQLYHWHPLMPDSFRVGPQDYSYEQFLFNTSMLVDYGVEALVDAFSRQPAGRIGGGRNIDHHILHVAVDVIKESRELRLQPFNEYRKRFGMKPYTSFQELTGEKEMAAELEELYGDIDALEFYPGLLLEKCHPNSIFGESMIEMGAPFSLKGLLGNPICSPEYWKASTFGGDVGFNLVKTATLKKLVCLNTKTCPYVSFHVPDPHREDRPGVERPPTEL

[2] = target: T1, Prostaglandin G/H synthase 1; experiment: Inhibition of bovine seminal microsomal COX1 assessed as PGE2 production

Row | Compound | IC50 [1] | IC50 [2]
1 | Oc1cc(O)c2c(c1)O[C@H](c1ccc(O)c(O)c1)[C@@H](O)C2 [CIANIDANOL] | 279 µM | 183 µM
3 | C[C@@H]1O[C@@H](Oc2c(-c3ccc(O)c(O)c3)oc3cc(O)cc(O)c3c2=O)[C@H](O)[C@H](O)[C@H]1O [QUERCITRIN] | > 2000 µM | > 2000 µM

Reference: ChEMBL document CHEMBL1158843, “Development of a radiochemical cyclooxygenase-1 and -2 in vitro assay for identification of natural products as inhibitors of prostaglandin biosynthesis” (J Nat Prod, 1998)
